Laboratory results from patent EP0011277A1, “Dechloromaytansinoids, their production and use and pharmaceutical compositions containing them” (priority 1978, dated 1980).
Converted amounts (≈) assume the structure as drawn. Like-named read-outs stand apart in the source and are kept apart here.

Experiments:
[1] = tested on: Tetrahymena pyriformis W; test: Antiprotozoal activity, growth inhibition by serial dilution method; assay type: cell-based; conditions: read-out: Antiprotozoal activity MIC (μg/ml) Tetrahymena pyriformis W
Protocol: Antiprotozoal activity of compound (I) was assayed with Tetrahymena pyriformis W as the test organism and a medium composed of 20 g tryptose-peptone (Difoo Cc.), 1 g; yeast extract, 2 g glucose, 1000 mℓ distilled water, 10 mℓ IM phosphate buffer (pH 7.0) as the assay medium. The microorganism was incubated at 28°C for 44 to 48 hours and the growth inhibitory activity of compound (I) was assayed by the serial dilution method.

[2] = tested on: leukemia P-388; test: Antitumor therapeutic test in mice, leukemia P-388 (NCI protocol), life span prolongation; assay type: in vivo; conditions: intraperitoneally once daily for 9 consecutive days
Protocol: (§1) Therapeutic tests were carried out in mice according to NCI-protocols 1,200 and 1,300, Cancer Chemother, Reports, Part 3, 1972, Vol.3, No.2, in which leukemia P-388 and melanoma B-16 tumor cells had been intraperitoneally transplanted, compound (I) being administered intraperitoneally once daily for 9 consecutive days.

[3] = tested on: melanoma B-16; test: Antitumor therapeutic test in mice, melanoma B-16 (NCI protocol), life span prolongation; assay type: in vivo; conditions: intraperitoneally once daily for 9 consecutive days
Protocol: as §1

Compound	MIC [1] [µg/mL]	Antitumor activities P-388 (T/C %) ([2]; Dose 50 µg/kg)	Antitumor activities P-388 (T/C %) ([2]; Dose 100 µg/kg)	Antitumor activities P-388 (T/C %) ([2]; Dose 200 µg/kg)	Antitumor activities P-388 (T/C %) ([2]; Dose 400 µg/kg)	Antitumor activities B-16 (T/C %) ([3]; Dose 100 µg/kg)	Antitumor activities B-16 (T/C %) ([3]; Dose 200 µg/kg)	Antitumor activities B-16 (T/C %) ([3]; Dose 400 µg/kg)	Antitumor activities B-16 (T/C %) ([3]; Dose 800 µg/kg)	MIC ([1]; incubated at 28°C for 44 to 48 hours, serial dilution method) [µg/mL]
COc1cc2cc(c1)N(C)C(=O)CC(OC(=O)CCl)C1(C)OC1C(C)C1CC(O)(NC(=O)O1)C(OC)/C=C/C=C(\C)C2 (stereo not shown) [Dechloromaytansinol 3-chloroacetate, dechloromaytansinol 3-chloroacetate]	≥ 4	–	–	–	–	–	–	–	–	–
COc1cc2cc(c1)N(C)C(=O)CC(OC(=O)C(C)C)C1(C)OC1C(C)C1CC(O)(NC(=O)O1)C(OC)/C=C/C=C(\C)C2 (stereo not shown) [Dechloromaytansinol 3-isobutyrate, dechloromaytansinol 3-isobutyrate]	–	168	189	193	224	150	152	174	214	–
COc1cc2cc(c1)N(C)C(=O)CC(OC(=O)Cc1ccccc1)C1(C)OC1C(C)C1CC(O)(NC(=O)O1)C(OC)/C=C/C=C(\C)C2 (stereo not shown) [Dechloromaytansinol 3-phenylacetate, dechloromaytansinol 3-phenylacetate]	–	–	–	–	–	–	–	–	–	2 (≈ 3.08 µM)
COc1cc2cc(c1)N(C)C(=O)CC(OC(=O)C1CCCCC1)C1(C)OC1C(C)C1CC(O)(NC(=O)O1)C(OC)/C=C/C=C(\C)C2 (stereo not shown) [dechloromaytansinol 3-cyclohexanecarboxylate]	4 (≈ 6.24 µM)	–	–	–	–	–	–	–	–	–
dechloromaytansine	–	158	165	175	189	171	152	179	190	–
